Like-named read-outs stand apart in the source and are kept apart here.
Tests used:
[1] = tested on: Phospho-T308 Akt; test: Phospho-T308 Akt detection using immunoblot (western blot) in PC-3 cells; assay type: cell-based; settings: for Reduction of Cellular Levels of Akt p308 By Western: 2 hour incubation, concentration not given in Table 2; for inhibition at 5 µM / inhibition at 2 µM: Homo sapiens, read-out: Percent Inhibition of phospho-Akt (308) By Western
Description: A Phospho-T308 Akt detection using immunoblot (western blot) analysis was performed as described below.
PC-3 prostate cells were plated in a 6 well plate in F12K media (Invitrogen, Carlsbad, Calif.) plus 10% FBS (Invitrogen) and placed in incubator overnight. The stock of compound A was a 50 mM solution in DMSO. 1000× dilutions of the compound were made in DMSO. The 1000× dilutions include, 35 mM, 25 mM, 15 mM, 10 mM, 7 mM, 5 mM, and 1 mM. 1 μl of the 1000× dilutions was added to 1 ml F12K media without serum for final concentrations of […]. 1 μl of DMSO was added to 1 ml media with no serum for a control. The 1 ml DMSO or compound plus media was then added to the cells. Following a 2 hour incubation at 37° C., cells were harvested and washed in PBS and subjected to centrifugation at 3,300 rpm for 5 minutes. Cells were lysed in 100 μl of Bio Rad Bioplex buffer containing protease inhibitors (BioRad, Hercules, Calif.) for 30 minutes on ice followed by centrifugation at 13,000 rpm for 5 minutes. The protein content of the supernatant was assayed using DC Protein Assay (BioRad). 25 μl of protein was added to 4× sample buffer (Invitrogen) and sample reducer (Invitrogen) and run on a 4-12% NuPage gel (Invitrogen). Proteins were then transferred to nitrocellulose (Invitrogen). The membrane was blocked in Tris-buffered saline (Sigma, St. Louis, Mo.) plus 0.1% Tween (Sigma) (T-TBS) plus 5% blotting grade milk (BioRad) for 60 minutes. Membranes were then incubated in T-TBS plus 5% BSA (Sigma) plus 1:1000 of anti-phospho akt (Thr 308) (Cell Signaling Technology, Beverly, Mass.) overnight at 4° C. Membranes were washed in T-TBS then incubated in 1:2000 of anti-rabbit-HRP (Cell Signaling) in TTBS plus 5% milk. Membranes were washed again and proteins were visualized with Super Signal West Pico (Pierce, Rockford, Ill.) and using Kodak BioMax MR film (Kodak, Rochester, N.Y.).
Phospho-akt 308 protein bands on the film were quantified using densitometry. An Alpha Imager (Alpha Innotech Corp, San Leandro, Calif.) using AlphaEase FC software version 4.1.0 (Alpha Innotech Corp.) was used to quantitate protein bands. Briefly, a rectangle of equal size was placed around each protein band as well as a background spot on the film. The densitometry values (IDV=Integrated Density Value) obtained for the background spot was then subtracted from the values obtained for the protein bands. These values were used to obtain an EC50 value using non-linear regression analysis in GraphPad Prism Version 4.00 (Graph Pad Prism, San Diego, Calif.). Percent decrease in expression of phosphoh-akt 308 were also measured specifically at 2 μM and 5 μM levels of inhibitor.

[2] = molecular target: phosphorylated PDK1 (Homo sapiens (Human), UniProt O15530); test: PDK1 kinase assay (coupled PDK1/AKT/FAM-crosstide, IMAP); assay type: biochemical; settings: 0.5 nM phosphorylated PDK1, 24 μM ATP; read-out: Inhibition of phospo-PDK1 in vitro IC50
[3] = molecular target: dephosphorylated PDK1 (Homo sapiens (Human), UniProt O15530); test: as above; assay type: biochemical; settings: 25 nM un-phosphorylated PDK1, 24 μM ATP; read-out: Inhibition of dephospo-PDK1 in vitro IC50
Summary of the method: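 The FAM-crosstide phosphorylation readout was IMAP polarization (ex 485/em 530 nm, 2 h binding), with 4-parameter fits of ΔmP data. The reaction ran 30 min at 25 °C with 24 μM ATP, and contained 25 nM phosphatase-treated PDK1 (aa 51–360) plus 30 nM unphosphorylated AKT2-PIFtide and 100 nM substrate. Buffer was 10 mM Tris pH 7.2, 10 mM MgCl2, 0.01% Triton X-100 and 1 mM DTT.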

[4] = tested on: phospho-akt (Thr308); test: phospho-akt (Thr308) MSD ELISA in PC-3 cells; assay type: cell-based; settings: Homo sapiens; for inhibition at 1 µM / inhibition at 10 µM: read-out: Percent Inhibition of phospho-Akt (308) By MSD ELISA; for EC50: PC-3, 2 h
Summary of the method: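 Read-out is MSD electrochemiluminescence after lysate capture overnight at 4 degrees and 1 hr RT detection-antibody step. Before lysis, overnight-plated PC-3 cells received three-fold serial dilutions of inhibitor in serum-free medium, with DMSO-only high controls.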

[5] = PC-3 cells, 2 hours, no serum, read-out: Inhibition of P308 Akt in cells using MSD EC50
[6] = PC-3 cells, 2 hours, no serum, read-out: Reduction of Cellular Levels of Akt p308 By MSD ELISA (EC50 μM)

Sequence of phosphorylated PDK1 (O15530 51-360): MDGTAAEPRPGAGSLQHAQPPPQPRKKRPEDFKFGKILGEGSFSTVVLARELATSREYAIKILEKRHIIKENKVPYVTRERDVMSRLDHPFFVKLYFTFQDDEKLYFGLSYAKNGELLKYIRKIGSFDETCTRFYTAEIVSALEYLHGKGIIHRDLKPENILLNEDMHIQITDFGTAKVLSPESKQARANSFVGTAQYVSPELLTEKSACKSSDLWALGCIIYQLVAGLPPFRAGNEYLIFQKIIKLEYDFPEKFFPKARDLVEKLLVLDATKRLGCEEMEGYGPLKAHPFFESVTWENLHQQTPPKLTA
Sequence of dephosphorylated PDK1 (O15530 51-360): as above

| Structure (SMILES) | Reduction of Cellular Levels of Akt p308 By Western [1] | inhibition at 5 µM [1] | IC50 [2] | IC50 [3] | inhibition at 1 µM ([4]; PC-3 cells) | inhibition at 10 µM ([4]; PC-3 cells) | EC50 [4, 5] | inhibition at 2 µM [1] | EC50 [4, 6] | EC50 ([4]; read-out: Reduction of Cellular Levels of Akt p308 By MSD ELISA (EC50 μM)) |
| --- | --- | --- | --- | --- | --- | --- | --- | --- | --- | --- |
| COC(=O)[C@@H](COc1ccc2[nH]c(=O)[nH]c2c1)NC(=O)c1cccn(Cc2ccc(F)c(F)c2)c1=O [Cpd 293] | bb (inhibition of from 25% to 75%) | 25 to 75% | < 500 nM | < 500 nM | 25 to 75% | > 75% |  |  |  |  |
| O=C(NCc1noc(-c2c[nH]c3ncccc23)n1)c1cc(Cl)cn(Cc2ccc(Cl)cc2)c1=O [Cpd 309] | bb (inhibition of from 25% to 75%) | 25 to 75% | < 500 nM | < 500 nM | 25 to 75% | > 75% | 1 to 5 µM |  |  |  |
| O=C(NCc1noc(-c2c[nH]c3ncccc23)n1)c1cccn(Cc2cccc(F)c2)c1=O [Cpd 302] | bbb (inhibition of more than 75%) | > 75% | < 500 nM | < 500 nM | < 25% | 25 to 75% |  |  |  |  |
| O=C(NCc1cccc(-c2ccc3nccn3c2)c1)c1cccn(Cc2ccc(F)c(F)c2)c1=O [Cpd 9] | bbb (inhibition of more than 75%) |  | < 500 nM | < 500 nM |  |  |  |  |  |  |
| O=C(NCc1ncc(-c2c[nH]c3ncccc23)s1)c1cccn(Cc2ccc(F)c(F)c2)c1=O [Cpd 132] | bbb (inhibition of more than 75%) | > 75% | < 500 nM |  | 25 to 75% | > 75% | < 1 µM |  |  |  |
| O=C(O)CC[C@@H](NC(=O)c1cccn(Cc2ccc(F)c(F)c2)c1=O)c1nc(-c2c[nH]c3ncccc23)co1 [Cpd 307] | b (inhibition of less 25%) | < 25% | < 500 nM | < 500 nM | < 25% | < 25% |  |  |  |  |
| CNC(=O)C[C@@H](NC(=O)c1cccn(Cc2ccc(F)c(F)c2)c1=O)c1ccc(-c2c[nH]c3ncccc23)s1 [Cpd 18] | bb (inhibition of from 25% to 75%) |  | < 500 nM |  |  |  | 1 to 5 µM | 25 to 75% | 1 to 5 µM |  |
| C=CCOC(=O)C[C@@H](NC(=O)c1cccn(Cc2ccc(F)c(F)c2)c1=O)c1ncc(-c2c[nH]c3ncccc23)o1 [Cpd 301] | bbb (inhibition of more than 75%) | > 75% | < 500 nM | < 500 nM | 25 to 75% | 25 to 75% | 1 to 5 µM |  | 1 to 5 µM |  |
| O=C(NCc1noc(-c2c[nH]c3ncccc23)n1)c1cccn(Cc2ccc(Cl)cc2)c1=O [Cpd 305] | bbb (inhibition of more than 75%) | > 75% | < 500 nM | < 500 nM | < 25% | > 75% | 1 to 5 µM |  |  |  |
| O=C(Nc1c(F)cccc1Oc1ccc2[nH]c(=O)[nH]c2c1)c1cccn(Cc2ccc(F)c(F)c2)c1=O [Cpd 133] | bbb (inhibition of more than 75%) | > 75% | < 500 nM | < 500 nM | < 25% | 25 to 75% |  |  |  |  |
| O=C(NCc1cccc(-c2c[nH]c3ncc(CO)cc23)c1)c1cccn(Cc2ccc(F)c(F)c2)c1=O [Cpd 225] | bbb (inhibition of more than 75%) | > 75% |  | < 500 nM |  |  |  |  | < 1 µM |  |
| CNC(=O)C[C@@H](NC(=O)c1cccn(Cc2ccc(F)c(F)c2)c1=O)c1ncc(-c2c[nH]c3ncccc23)s1 [Cpd 137] | bbb (inhibition of more than 75%) | > 75% | < 500 nM | < 500 nM | < 25% | > 75% | > 5 µM |  |  |  |
| CC(C)(C)OC(=O)NC[C@@H](NC(=O)c1cccn(Cc2ccc(F)c(F)c2)c1=O)c1nc(-c2c[nH]c3ncccc23)cs1 [Cpd 295] | bb (inhibition of from 25% to 75%) | 25 to 75% | < 500 nM | < 500 nM | < 25% | > 75% | 1 to 5 µM |  |  |  |
| O=C(NCc1ccc(-c2c[nH]c3ncc(CO)cc23)s1)c1cccn(Cc2ccc(F)c(F)c2)c1=O [Cpd 12] | bb (inhibition of from 25% to 75%) |  | < 500 nM |  | 25 to 75% | > 75% | < 1 µM | 25 to 75% |  |  |
| O=C(NCc1cccc(-c2ccc3n[nH]c(=O)n3c2)c1)c1cccn(Cc2ccc(F)c(F)c2)c1=O [Cpd 216] | bb (inhibition of from 25% to 75%) | 25 to 75% | 500 to 10000 nM | < 500 nM |  |  |  |  |  |  |
| CNC(=O)C[C@@H](NC(=O)c1cccn(Cc2ccc(F)c(F)c2)c1=O)c1nnc(-c2c[nH]c3ncccc23)o1 [Cpd 299] | bb (inhibition of from 25% to 75%) | 25 to 75% | < 500 nM |  | < 25% | < 25% |  |  |  |  |
| O=C(O)c1cnc2[nH]cc(-c3ccc(CNC(=O)c4cccn(Cc5ccc(F)c(F)c5)c4=O)s3)c2c1 [Cpd 21] | b (inhibition of less 25%) |  | < 500 nM |  |  |  |  | < 25% |  | > 5 µM |
| O=C(NCc1noc(-c2c[nH]c3ncccc23)n1)c1cccn(Cc2cccc(Cl)c2)c1=O [Cpd 294] | bb (inhibition of from 25% to 75%) | 25 to 75% | < 500 nM | < 500 nM |  |  |  |  |  |  |
| O=C(NCc1cccc(-c2c[nH]c3ncc(F)cc23)c1)c1cccn(Cc2ccc(F)c(F)c2)c1=O [Cpd 10] | bbb (inhibition of more than 75%) | > 75% | < 500 nM |  | 25 to 75% | > 75% | 1 to 5 µM |  |  |  |
| O=C(NCc1ccc(-c2c[nH]c3ncc(F)cc23)s1)c1cccn(Cc2ccc(F)c(F)c2)c1=O [Cpd 11] | bbb (inhibition of more than 75%) | > 75% | < 500 nM |  |  |  | < 1 µM |  | < 1 µM |  |
| NC(=O)C[C@@H](NC(=O)c1cccn(Cc2ccc(F)c(F)c2)c1=O)c1nnc(-c2c[nH]c3ncccc23)o1 [Cpd 289] | b (inhibition of less 25%) | < 25% |  | < 500 nM | < 25% | < 25% |  |  |  |  |

Source: US9873693B2 (Sunesis Pharmaceuticals, Inc., priority 2006, dated 2018)
